Data: patent publication US20190247350A1, “COMPOSITION FOR IMPROVING DECREASED ABSORPTION IN DIGESTIVE TRACT, AND COMPOSITION FOR PROMOTING ABSORPTION IN DIGESTIVE TRACT” (AJINOMOTO CO., INC., priority 2016, published 2019)

What was measured:
Format in all cases: in vivo, mouse
[1] = test system: ABC protein G5 gene (Abcg5); test: Expression of ABC protein G5 gene in small intestine after running exercise (GeneChip array); conditions: feed with 2 wt % for 7 days, 4 hr running, small intestine 1 hr after running; compared to Ex group; P<0.05
From the text: (§1) 7-Week-old male CD2F1 mice (CHARLES RIVER LABORATORIES JAPAN, INC.) were divided into 4 groups (“Sed”, “Ex”, “Ex+Gln” and “Ex+Cys2”) (n=6/group), Sed group and Ex group were made to ingest a standard purified feed (AIN-93G composition), Ex+Gln group was made to ingest a standard purified feed (AIN-93G composition) added with glutamine (2 wt %) by replacing casein, and Ex+Cys2 group was made to ingest a standard purified feed (AIN-93G composition) added with cystine (2 wt %) by replacing casein, each for 7 days. Thereafter, each group was fasted overnight, and Ex group, Ex+Gln group and Ex+Cys2 group were made to run in a running wheel for 4 hr (speed=10.5 m/min). Sed group was continuously fasted during the running exercise of Ex group, Ex+Gln group and Ex+Cys2 group. At 1 hr after completion of running, the small intestine was collected from the mice of each group, and total RNA was extracted using Rneasy Lipid Tissue Mini Kit (QIAGEN). GeneChip Mouse Genome 430 2.0 (3′IVT) array (Affymetrix) was used for the measurement of comprehensive gene expression. Difference in the gene expression level of each group was tested by Dunnett's test following one-way analysis of variance. […]

[2] = test system: peptide transporter gene (Slc15a1); test: Expression of peptide transporter gene in small intestine after running exercise (GeneChip array); conditions: feed with 2 wt % for 7 days, 4 hr running, small intestine 1 hr after running; compared to Ex group; P<0.01
From the text: as §1

[3] = test system: small intestine (everted intestine sample); test: Glucose absorption capacity of everted intestine sample without exercise (Experimental Example 3); conditions: non-exercise, feed with cystine 2 wt % for 7 days, 10 mM glucose, 37° C., 90 min, Sed+Cys2 compared to Sed group
From the text: 7-Week-old male CD2F1 mice (CHARLES RIVER LABORATORIES JAPAN, INC.) were divided into 2 groups (“Sed” and “Sed+Cys2”) (n=6/group), Sed group was made to ingest a standard purified feed (AIN-93G composition), and Sed+Cys2 group was made to ingest a standard purified feed (AIN-93G composition) added with cystine (2 wt %) by replacing casein, each for 7 days. Then, each group was fasted overnight, and the small intestine was collected, everted intestine samples were produced according to the method of KirK et al. (ADVANCES In Physiology Education 37 (4) 415-426 (2013), which is incorporated herein by reference in its entirety). […]
Ringer buffer containing 10 mM glucose was added to the serous membrane side and the villus side of the everted intestine sample of each group, and the sample was incubated under oxygen supply at 37° C. for 90 min. Thereafter, the everted intestine sample was taken out, and the glucose concentration of the Ringer buffer on the serous membrane side and the villus side was measured using a glucose measurement kit (“glucose CII Test Wako” (Wako Pure Chemical Industries, Ltd.)). The glucose absorption capacity of each group was calculated from the difference in the glucose concentration between the villus side and the serous membrane side. The difference in the glucose absorption capacity of each group was determined by a comparison t-test between two groups. […]

biotinidase gene (Btd) = test: Expression of biotinidase gene in small intestine after running exercise (GeneChip array); conditions: feed with 2 wt % for 7 days, 4 hr running, small intestine 1 hr after running; compared to Ex group; P<0.01
From the text: as §1

aquaporin gene (Aqa3) = test: Expression of aquaporin gene in small intestine after running exercise (GeneChip array); conditions: feed with 2 wt % for 7 days, 4 hr running, small intestine 1 hr after running; compared to Ex group; P<0.01
From the text: as §1

[4] = test system: sodium-dependent multivitamin transporter gene (Slc5a6); test: Expression of sodium-dependent multivitamin transporter gene in small intestine after running exercise (GeneChip array); conditions: feed with 2 wt % for 7 days, 4 hr running, small intestine 1 hr after running; compared to Ex group; P<0.05
From the text: as §1

[5] = test system: small intestine (everted intestine sample); test: Glucose absorption capacity of everted intestine sample after running exercise (Experimental Example 2); conditions: feed with cystine 2 wt % for 7 days, 4 hr running
From the text: 7-Week-old male CD2F1 mice (CHARLES RIVER LABORATORIES JAPAN, INC.) were divided into 3 groups (“Sed”, “Ex” and “Ex+Cys2”) (n=12/group), Sed group and Ex group were made to ingest a standard purified feed (AIN-93G composition), and Ex+Cys2 group was made to ingest a standard purified feed (AIN-93G composition) added with cystine (2 wt %) by replacing casein, each for 7 days. Thereafter, each group was fasted overnight, and Ex group and Ex+Cys2 group were made to run in a running wheel for 4 hr (speed=10.5 m/min). Sed group was continuously fasted during the running exercise of Ex group and Ex+Cys2 group. […]
Ringer buffer containing 10 mM glucose was added to the serous membrane side and the villus side of the produced everted intestine sample of each group, and the sample was incubated under oxygen supply at 37° C. for 90 min. Thereafter, the everted intestine sample was taken out, and the glucose concentration of the Ringer buffer on the serous membrane side and the villus side was measured using a glucose measurement kit (“glucose CII Test Wako” (Wako Pure Chemical Industries, Ltd.)). The glucose absorption capacity of each group was calculated from the difference in the glucose concentration between the villus side and the serous membrane side. […]

[6] = test system: sodium-dependent glucose transporter gene (SGLT1); test: Expression of sodium-dependent glucose transporter gene in small intestine after running exercise (real-time PCR); conditions: feed with cystine 2 wt % for 7 days, 4 hr running; compared to Ex group; tendency toward significance at P<0.1
From the text: 7-Week-old male CD2F1 mice (CHARLES RIVER LABORATORIES JAPAN, INC.) were divided into 3 groups (“Sed”, “Ex” and “Ex+Cys2”) (n=12/group), Sed group and Ex group were made to ingest a standard purified feed (AIN-93G composition), and Ex+Cys2 group was made to ingest a standard purified feed (AIN-93G composition) added with cystine (2 wt %) by replacing casein, each for 7 days. Thereafter, each group was fasted overnight, and Ex group and Ex+Cys2 group were made to run in a running wheel for 4 hr (speed=10.5 m/min). Sed group was continuously fasted during the running exercise of Ex group and Ex+Cys2 group. Immediately after completion of running, the small intestine was collected, everted intestine samples were produced according to the method of KirK et al. (ADVANCES In Physiology Education 37 (4) 415-426 (2013), which is incorporated herein by reference in its entirety). As the everted intestine sample, a part of 8 cm below the point of 4 cm from the pyloric part was used.
Furthermore, using Rneasy Lipid Tissue Mini Kit (QIAGEN), total RNA was extracted from a part of the small intestine used for producing the everted intestine sample. QuantStudio 12K Flex Real-Time PCR System (Thermo Fisher Scientific) was used for the measurement of the expression of sodium-dependent glucose transporter gene (SGLT1). […]

[7] = test system: ABC protein G8 gene (Abcg8); test: Expression of ABC protein G8 gene in small intestine after running exercise (GeneChip array); conditions: feed with 2 wt % for 7 days, 4 hr running, small intestine 1 hr after running; compared to Ex group; P<0.05
From the text: as §1

[8] = test system: folic acid transporter gene (Slc46a1); test: Expression of folic acid transporter gene in small intestine after running exercise (GeneChip array); conditions: feed with 2 wt % for 7 days, 4 hr running, small intestine 1 hr after running; compared to Ex group; P<0.05
From the text: as §1

[9] = test system: scavenge receptor class B gene (Scarb1); test: Expression of scavenge receptor class B gene in small intestine after running exercise (GeneChip array); conditions: feed with 2 wt % for 7 days, 4 hr running, small intestine 1 hr after running; compared to Ex group; tendency toward significance at P<0.1
From the text: as §1

[10] = test system: amino acid transporter gene (Slc7a7); test: Expression of amino acid transporter gene in small intestine after running exercise (GeneChip array); conditions: feed with 2 wt % for 7 days, 4 hr running, small intestine 1 hr after running; compared to Ex group; tendency toward significance at P=0.1
From the text: as §1

| expression level of biotinidase gene (mRNA level) (biotinidase gene (Btd)) | SMILES | expression level of ABC protein G5 gene (mRNA level) [1] | expression level of peptide transporter gene (mRNA level) [2] | glucose absorption capacity (difference in glucose concentration between villus side and serous membrane side) [3] | expression level of aquaporin gene (mRNA level) (aquaporin gene (Aqa3)) | expression level of sodium-dependent multivitamin transporter gene (mRNA level) [4] | glucose absorption capacity (difference in glucose concentration between villus side and serous membrane side) ([5]; 10 mM glucose, 37° C., 90 min, compared to Ex group) | glucose absorption capacity (difference in glucose concentration between villus side and serous membrane side) ([5]; Ex+Cys2 compared to Sed group (no exercise)) | expression of SGLT1 (mRNA amount) [6] | expression level of ABC protein G8 gene (mRNA level) [7] | expression level of folic acid transporter gene (mRNA level) [8] | expression level of scavenge receptor class B gene (mRNA level) [9] | expression level of amino acid transporter gene (mRNA level) [10] |
| --- | --- | --- | --- | --- | --- | --- | --- | --- | --- | --- | --- | --- | --- |
| increased | NC(CSSCC(N)C(=O)O)C(=O)O (stereo not drawn) [cystine, 3,3′-dithiobis(2-aminopropanoic acid)] | increased | increased | improved | increased | increased | significantly (P<0.05) improved | higher | tended to increase | – | – | – | – |
| increased | NC(=O)CCC(N)C(=O)O (stereo not drawn) [glutamine, 2-amino-4-carbamoylbutanoic acid] | – | – | – | increased | – | – | – | – | increased | increased | increased | increased |
